Measured values: patent US20210275503A1, “TARGETING HOMOLOGOUS RECOMBINATION: A NEW SYTHETIC LETHAL THERAPEUTIC PARADIGM” (Cyteir Therapeutics, Inc., priority 2020, published 2021)
Entries after “also recorded” stand apart in the source; their conditions may differ.

Legend:
[1] = Compound 67A pharmacokinetics in human subjects; type: in vivo; details: for Cmax / Tmax / AUC(0-t): in vivo, human subjects
Experimental: Compound 67A pharmacokinetics were analyzed in human subjects (Table 1, FIGS. 2A-2B)

[2] = Phase 1/2 monotherapy: safety and tolerability; type: in vivo; details: 23 subjects
Description: (§1) Dose escalation studies comprised of subjects with B-cell non-Hodgkin's lymphoma, chronic lymphocytic leukemia, multiple myeloma, breast cancer, head and neck cancer, soft tissue sarcoma, and ovarian cancer. Backfill studies comprised of subjects with diffuse large b-cell lymphoma (DLBCL), B-cell malignancies, pancreatic cancer, small-cell lung cancer, and HPV+HNSCC. Dosage for the Phase 1/2 monotherapy study is seen in FIG. 4.

[3] = Food effect pharmacokinetics, 90 mg QD, cycle 1 day 1; type: in vivo, human; details: for Cmax / AUC(0-t) / Tmax: human, in vivo, oral, 90 mg, 90 mg QD, cycle 1 day 1; for Cmax / AUC(0-t): Mean ± SD; for AUC(0-t): read-out: AUC0-24; for Tmax: median (min, max)
Experimental: The food effect was evaluated with a 90 mg QD dosage during cycle 1 at day 1 (Table 2; FIG. 3).

[4] = tested on: advanced hematologic and solid tumors; assay: Phase 1/2 monotherapy: clinical efficacy (Lugano, RECIST v1.1); type: in vivo, human; details: for time on treatment: treatment ongoing
Experimental: as §1, with “Compound 67A was analyzed in hematological and solid tumors. Dose” for “Dose”
Subjects with advanced hematologic and solid tumors were treated with continuous 28-day cycles of increasing doses of Compound 67A with an accelerated titration and 3+3 trial design. As of Dec. […] Six subjects (26.1%) experienced a Compound 67A-related adverse event with only Grade 1/2 nausea (n=3, 13%) and constipation (n=2, 8.7%) occurring in >1 subject. There were no reported Compound 67A-related myelosuppression, serious adverse events, study discontinuation, or deaths.
Ten subjects were response evaluable prior to the data cut off.

[5] = subject with follicular lymphoma, 45 mg BID
[6] = subject with myxofibrosarcoma, 45 mg BID
[7] = subject with pancreatic cancer, 45 mg BID

`CC(C)OC(=O)Nc1ccc(-c2cnc([C@H]3CC[C@H](NC(=O)OC(C)C)CC3)s2)c(S(=O)(=O)NC(C)(C)C)c1` [Compound 67A] gave a Cmax ([1]; 15 mg BID) of 0.338 µg/mL, a Tmax ([1]; 15 mg BID) of 2 h and an AUC(0-t) ([1]; 15 mg BID, AUC0-12) of 2.63 µg·h/mL. For the same compound, the Cmax ([1]; 20 mg BID) was 0.67 µg/mL, the Tmax ([1]; 20 mg BID) was 2 h and the AUC(0-t) ([1]; 20 mg BID, AUC0-12) was 5.94 µg·h/mL. For the same compound, the Cmax ([1]; 30 mg BID) was 1.21 µg/mL, the Tmax ([1]; 30 mg BID) was 2 h and the AUC(0-t) ([1]; 30 mg BID, AUC0-12) was 10.2 µg·h/mL. For the same compound, the AUC(0-t) ([1]; 45 mg BID, AUC0-12, mean ± SD, n = 2) was 13.5 ± 8.27 µg·h/mL, the Cmax ([1]; 45 mg BID, mean ± SD) was 1.43 ± 0.362 µg/mL and the Tmax ([1]; 45 mg BID, median (min, max)) was 1.5 h. The AUC(0-t) ([1]; 90 mg QD, AUC0-8, mean ± SD) was 11.5 ± 5.57 µg·h/mL, the Cmax ([1]; 90 mg QD, mean ± SD) was 1.74 ± 0.93 µg/mL and the Tmax ([1]; 90 mg QD, median (min, max)) was 2.5 h. For the same compound, the AUC(0-t) ([1]; 130 mg QD, AUC0-8, mean ± SD) was 12.8 ± 3.98 µg·h/mL, the Cmax ([1]; 130 mg QD, mean ± SD) was 1.8 ± 0.438 µg/mL and the Tmax ([1]; 130 mg QD, median (min, max)) was 2 h. It also gave an AUC(0-t) ([1]; 200 mg QD, AUC0-8, mean ± SD) of 20.6 ± 12.2 µg·h/mL, a Cmax ([1]; 200 mg QD, mean ± SD) of 3.46 ± 2.47 µg/mL and a Tmax ([1]; 200 mg QD, median (min, max)) of 3.75 h. The “systemic exposure versus dose” value ([1]; preliminary pharmacokinetic analyses, Phase 1/2 subjects) was “dose proportional systemic exposure”, the “Compound 67A-related myelosuppression, serious adverse events, study discontinuation, or deaths” value [2] was “no reported” and the dose-limiting toxicity ([2]; 6 cohorts (15, 20, 30, 45 mg BID; 90, 130 mg QD), 28-day cycles) was “No subjects experienced a dose-limiting toxicity”. The “Grade 1/2 constipation (related adverse event)” value ([2]; n=2) was 8.7%, the “Grade 1/2 nausea (related adverse event)” value ([2]; n=3) was 13% and the “subjects with a Compound 67A-related adverse event” value ([2]; six subjects) was 26.1%. The “impact of food on drug exposure” value ([3]; 90 mg QD food-effect cohort) was “minimal impact of food on drug exposure”, the Cmax ([3]; Fasted Patients (n = 3)) was 0.574 ± 0.304 µg/mL and the AUC(0-t) ([3]; Fasted Patients (n = 3)) was 5.95 ± 2.9 µg·h/mL. The Tmax ([3]; Fasted Patients (n = 3)) was 4 h, the Cmax ([3]; Fed Patients (n = 3)) was 0.458 ± 0.129 µg/mL and the AUC(0-t) ([3]; Fed Patients (n = 3)) was 6.43 ± 1.83 µg·h/mL. For the same compound, the Tmax ([3]; Fed Patients (n = 3)) was 8 h, the “metabolic activity in non-target lesions” value ([4]; subject with DLBCL) was “significant reduction in metabolic activity in non-target lesions” and the target lesions ([4]; subject with DLBCL) was “near complete resolution of target lesions”. The response ([4]; subject with DLBCL, 45 mg BID) was “partial responses; also recorded: confirmed partial response”, the tumor change ([4]; subject with DLBCL, 45 mg BID, Lugano) was −74% and the time on treatment ([4]; subject with DLBCL, 45 mg BID) was no less than 126 days. For the same compound, the decrease ([4]; subject with follicular lymphoma (45 mg BID), C3D1) was 42%, the decrease ([4]; subject with follicular lymphoma (45 mg BID), C5D1) was 47% and the response ([4]; subject with follicular lymphoma (45 mg BID, escalated to 130 mg QD at C5D1), end of the sixth month) was “unconfirmed partial response”. The response ([4]; subject with follicular lymphoma, 30 mg BID) was “stable disease with evidence of clinical benefit”, the decrease ([4]; subject with follicular lymphoma, 30 mg BID, C3D1) was 27% and the “duration of stable disease” value [4, 5] was no less than 99 days. The tumor change [4, 5] was −42%, the response ([4]; subject with follicular lymphoma, 45 mg BID, at data cut off) was “stable disease with tumor shrinkage” and the overall decrease ([4]; subject with follicular lymphoma, C7D1, after escalation to 130 mg QD at C5D1) was 67%. For the same compound, the response ([4]; subject with leiomyosarcoma) was “stable disease”, the “change by RECIST” value ([4]; subject with leiomyosarcoma, six months) was 0% and the decrease ([4]; subject with myxofibrosarcoma) was 30%. For the same compound, the response [4, 6] was “partial responses; also recorded: unconfirmed partial response”, the tumor change ([4]; subject with myxofibrosarcoma, 45 mg BID, RECIST v1.1) was −30% and the time on treatment [4, 6] was no less than 250 days. The response ([4]; subject with ovarian cancer) was “stable disease”, the “decrease by RECIST v1.1” value ([4]; subject with ovarian cancer, two months) was 29% and the “decrease by RECIST” value ([4]; subject with pancreatic cancer) was 19%. For the same compound, the “drop in CA19-9” value ([4]; subject with pancreatic cancer) was no less than 70%, the “duration of stable disease” value [4, 7] was 111 days and the response [4, 7] was “stable disease with tumor shrinkage; also recorded: stable disease with evidence of clinical benefit”. It also gave a tumor change [4, 7] of −19%.
